How the values were obtained:
[1] = system: HEK293T cells; experiment: In vitro Luc-mRNA transfection, luciferase luminescence expression in HEK293T cells; format: cell-based, human; parameters: unit not given here; conditions: n=3
Procedure: In Vitro Transfection Activity of DNPs in Human Embrionic Kidney (HEK) 293T Cells: HEK293T cells were seeded into 96-well plates (20,000 cells/well/200 μL) and cultured for 24 h at 37° C. in 5% CO2 complete cell culture media. Screening experiments were performed with nonoptimized DNPs containing naked nucleoside-modified mRNA (Karikó, et al., Immunity 2005, 23, 165-175; Pardi, et al., Methods Mol. Biol. 2013, 969, 29-42), of molar mass 664,341 encoding firefly luciferase (mRNA-Luc). A constant concentration of mRNA-Luc of 125 ng/well was used. The transIT (TransIT-mRNA transfection Kit from Mirus Bio) and MC3-based LNPs (MC3: DLin-MC3-DMA, which is the FDA approved LNP for mRNA delivery) were used as positive controls for cell transfection at a concentration of mRNA-Luc of 125 ng/well, identical to that of the tested DNPs. Subsequently cells were cultured for 24 h, the medium was aspirated under reduced pressure by a glass pipette and cells were lysed with 30 μL/well of cell culture lysis reagent (Promega). The luminescence intensity corresponding to the luciferase protein expressed was characterized and analyzed.
In vitro mRNA Delivery: Human embryonic kidney (HEK) 293T cells (American Type Culture Collection) were cultured in Dulbecco's modified Eagle's medium (DMEM) supplemented with 10% inactivated fetal bovine serum (FBS) (Gemini Bio-Products), 2 mM L-glutamine and 100 U/mL penicillin/streptomycin (Life Technologies) (complete medium). For in vitro screening experiments, HEK293T cells were seeded into 96-well plates (20,000 cells/well/200 μL) and cultured for 24 h in at 37° C. and 5% CO2 in complete media. Cell were transfected with IAJDs with encapsulated naked nucleoside-modified mRNA encoding firefly luciferase (mRNA-Luc) with fixed concentration of mRNA-Luc, 125 ng per well. The transIT (TransIT®-mRNA Transfection Kit, Mirus Bio) was used as a positive control for cell transfection, accordingly per manufacturer protocol and added to cells at the concentration of mRNA-Luc, 125 ng per well, the same as for tested particles. Cells were further cultured for 24 h, then medium was aspirated, and cells were lysed with 30 μL/well of cell culture lysis reagent (Promega). For the characterization of luminescence intensity, 2.5 μL of the lysed cells was mixed with 10 μL of luciferase assay substrate and luminescence was analyzed using a MiniLumat LB 9506 luminometer (Berthold/EG&G; Wallac).
Luminescence characterization for in vitro transfection experiments was performed by determining the luminescence intensity for in vitro Luc-mRNA transfection experiments using a MiniLumat LB 9506 luminometer (Berthold/EG&G; Wallac).
For in vitro Luc-mRNA transfection screening experiments, human embryonic kidney 293 cells (HEK 293) were seeded into 96-well plates (20,000 cells/well/200 μL) and cultured for 18-20 hours at 37° C., 5% CO2 in complete Dulbecco's modified Eagle's medium (DMEM) supplemented with 2 mM L-glutamine (Life Technologies), 100 U/mL penicillin/streptomycin (Invitrogen) and 10% fetal bovine serum (FBS, Gemini Bio-Products). Cells were transfected with DNPs with encapsulated naked nucleoside-modified mRNA encoding firefly luciferase (Luc-mRNA) at constant concentration of Luc-mRNA, 125 ng per well. Luc-mRNA complexed with TransIT (TransIT®-mRNA Transfection Kit, Mirus Bio) or encapsulated in FDA approved MC3-based LNPs were used as positive controls for cell transfection, at the concentration of Luc-mRNA of 125 ng per well, the same as for tested DNPs. After transfection cells were further cultured at 37° C., 5% CO2 for 18-20 hours, then medium was aspirated and cells were lysed with luciferase cell culture lysis reagent (30 μL/well) (Promega, Madison, WI). […]

[2] = system: BALB/c mice; experiment: In vivo mRNA delivery in mice with DNPs, whole-body bioluminescence imaging (IVIS); conditions: for Organs with luminescence: Table 13, mice
Procedure: (§1) The exposure time was 1 min.
Luminescence characterization for in vivo transfection experiments employed bioluminescence imaging with an IVIS Spectrum imaging system (PerkinElmer, Waltham, MA). Mice were anesthetized with 3% of isoflurane (Piramal Healthcare Limited) and intraperitoneally (i.p.) administered with D-luciferin (Regis Technologies) at a dose of 150 mg/kg of body weight. Ten minutes post administration of D-luciferin, mice were placed on the imaging platform while being maintained on isoflurane via a nose cone and imaged using an exposure time of 60 seconds. […] To quantify luminescent flux, an oval ROI was placed over each organ of interest and analyzed.
(§2) Tissue luminescence signal was measured on the IVIS imaging system using an exposure time of 60 seconds using medium binning (binning=8) to ensure that the signal obtained was within operative detection range. […] Bioluminescence imaging was performed as described above.
Luminescence Characterization for In Vivo Transfection Experiments: bioluminescence imaging was performed with an IVIS Spectrum imaging system (PerkinElmer, Waltham, MA).

[3] = system: spleen; experiment: In vivo mRNA delivery, IVIS imaging of organs: spleen; parameters: species or system mice; key to Organs with luminescence: spleen: strong: Strong meant the luminescence intensity in that organ was relatively high, compared to other organs; weak: Weak meant the luminescence intensity in that organ was relatively low, compared to other organs; conditions: for Organs with luminescence: spleen (weak/strong): Table 14; for Organs with luminescence: spleen: Table 17, mice, IVIS, 4-6 h after injection, intensity relative to other organs
Procedure: as §1, §2
Tissue luminescence signal was measured on the IVIS imaging system using a certain exposure time (60, 30 or 15 seconds) and medium binning (binning=8) to ensure that the signal obtained was within operative detection range.

[4] = HEK293T cells, Luc-mRNA 125 ng/well
[5] = IVIS imaging 6 h after injection
[6] = Table 16, HEK 293T cells, 125 ng/well
[7] = Table 20, nonsymmetric IAJDs and MC3-Luc-mRNA

Q: Which Luminescence [1, 4] does the source give for `CCCCCCCCCCCCOCC(COCCCCCCCCCCCC)(COCCCCCCCCCCCC)COC(=O)CCCN1CCN(C)CC1` [IAJD 82, 3-(Dodecyloxy)-2,2-bis((dodecyloxy)methyl)propyl 4-(4-methylpiperazin-1-yl)butanoate] here?
A: 17

Q: And the Organs with luminescence ([2]; IVIS imaging 5 h after injection)?
A: spleen

Q: What about the “Organs with luminescence: spleen (weak/strong)” value (“Organs … (weak/strong)” below) ([3]; imaging 5 h after injection) of the same compound?
A: Spleen (strong)

Q: How did the Luminescence [1, 4] turn out when `CCCCC(CC)COc1ccc(COC(=O)CCCN2CCN(C)CC2)cc1OCC(CC)CCCC` (centres unmarked) [IAJD 103, 3,4-Bis((2-ethylhexyl)oxy)benzyl 4-(4-methylpiperazin-1-yl)butanoate] was run?
A: 19

Q: And the Organs with luminescence [2, 5]?
A: Lung, spleen

Q: And the “Organs … (weak/strong)” value ([3]; imaging 6 h after injection)?
A: spleen (weak)

Q: With `CCCCCCCCCCCCCCOc1cc(CNC(=O)CCCN2CCN(C)CC2)cc(OCCCCCCCCCCCCCC)c1` [IAJD 108, N-(3,5-bis(tetradecyloxy)benzyl)-4-(4-methylpiperazin-1-yl)butanamide] as the compound, how does the Luminescence [1, 4] read?
A: 136,424

Q: What about the Organs with luminescence [2, 5] of the same compound?
A: Lung, spleen

Q: What about the “Organs … (weak/strong)” value ([3]; imaging 6 h after injection) of the same compound?
A: spleen (weak)

Q: What does the source list for `CCCCCCCCCCCOc1cc(COC(=O)CCCN2CCN(CCO)CC2)cc(OCCCCCCCC)c1` [IAJD 113, 3-(Octyloxy)-5-(undecyloxy)benzyl 4-(4-(2-hydroxyethyl)piperazin-1-yl)butanoate]?
A: Luminescence [1, 6]: 78,118; In vivo activity (total flux, p/s) ([2]; Table 19, nonsymmetric IAJDs): 1.70 × 10^7 p/s; Organs with luminescence: spleen [3]: Spleen (strong)

Q: Which results are given for `CCCCCCCCCCCOc1cc(COC(=O)CCCN2CCN(C)CC2)cc(OCCCCCCCCCC)c1` [IAJD 114, 3-(Decyloxy)-5-(undecyloxy)benzyl 4-(4-methylpiperazin-1-yl)butanoate]?
A: Luminescence [1, 6]: 1,580; In vivo activity (total flux, p/s) ([2]; Table 19, nonsymmetric IAJDs): 3.56 × 10^6 p/s; Organs with luminescence: spleen [3]: spleen (strong)

Q: What does the source list for `CCCCCCCCCCCOc1cc(COC(=O)CCCN2CCN(CCO)CC2)cc(OCCCCCCCCCC)c1` [IAJD 115, 3-(Decyloxy)-5-(undecyloxy)benzyl 4-(4-(2-hydroxyethyl)piperazin-1-yl)butanoate]?
A: Luminescence [1, 6]: 390,021; In vivo activity (total flux, p/s) ([2]; Table 19, nonsymmetric IAJDs): 4.59 × 10^6 p/s; Organs with luminescence: spleen [3]: spleen (strong)

Q: Which results are given for `CCCCCCCCCCCCCOc1cc(COC(=O)CCCN2CCN(C)CC2)cc(OCCCCCCCCCCC)c1` [IAJD 116, 3-(Tridecyloxy)-5-(undecyloxy)benzyl 4-(4-methylpiperazin-1-yl)butanoate]?
A: Luminescence [1, 6]: 192,213; In vivo activity (total flux, p/s) ([2]; Table 19, nonsymmetric IAJDs): 2.38 × 10^7 p/s; Organs with luminescence: spleen [3]: spleen (strong)

Q: What does the source list for `CCCCCCCCCCCCCOc1cc(COC(=O)CCCN2CCN(CCO)CC2)cc(OCCCCCCCCCCC)c1` [IAJD 117, 3-(Tridecyloxy)-5-(undecyloxy)benzyl 4-(4-(2-hydroxyethyl)piperazin-1-yl)butanoate]?
A: Luminescence [1, 6]: 516,522; In vivo activity (total flux, p/s) ([2]; Table 19, nonsymmetric IAJDs): 8.64 × 10^6 p/s; Organs with luminescence: spleen [3]: spleen (strong)

Q: What does the source list for `CCCCCCCCCCCCCCCOc1cc(COC(=O)CCCN2CCN(C)CC2)cc(OCCCCCCCCCCC)c1` [IAJD 118, 3-(Pentadecyloxy)-5-(undecyloxy)benzyl 4-(4-methylpiperazin-1-yl)butanoate]?
A: Luminescence [1, 6]: 568,354; In vivo activity (total flux, p/s) ([2]; Table 19, nonsymmetric IAJDs): 1.46 × 10^7 p/s; Organs with luminescence: spleen [3]: spleen (strong)

Q: Which results are given for `CCCCCCCCCCCCCCCOc1cc(COC(=O)CCCN2CCN(CCO)CC2)cc(OCCCCCCCCCCC)c1` [IAJD 119, 3-(Pentadecyloxy)-5-(undecyloxy)benzyl 4-(4-(2-hydroxyethyl)piperazin-1-yl)butanoate]?
A: Luminescence [1, 6]: 565,906; In vivo activity (total flux, p/s) ([2]; Table 19, nonsymmetric IAJDs): 8.22 × 10^7 p/s; Organs with luminescence: spleen [3]: spleen (strong)

Q: With `CCCCCCCCCCCCCCCCOc1cc(COC(=O)CCCN2CCN(CCO)CC2)cc(OCCCCCCCCCCC)c1` [IAJD 120, 3-(Hexadecyloxy)-5-(undecyloxy)benzyl 4-(4-(2-hydroxyethyl)piperazin-1-yl)butanoate] as the compound, how does the Luminescence [1, 6] read?
A: 443,836

Q: And the “In vivo activity (total flux, p/s)” value ([2]; Table 19, nonsymmetric IAJDs)?
A: 2.48 × 10^7 p/s

Q: And the “Organs with luminescence: spleen” value [3]?
A: Spleen (strong)

Q: Which results are given for `CCCCCCCCCCCOc1cc(COC(=O)CCCN2CCN(CCO)CC2)cc(OCCCCCCCCC)c1` [IAJD 122, 3-(Nonyloxy)-5-(undecyloxy)benzyl 4-(4-(2-hydroxyethyl)piperazin-1-yl)butanoate]?
A: Luminescence [1, 6]: 55,101; In vivo activity (total flux, p/s) ([2]; Table 19, nonsymmetric IAJDs): 2.50 × 10^7 p/s; Organs with luminescence: spleen [3]: spleen (strong)

Q: With `CCCCCCCCCCCCOc1cc(COC(=O)CCCN2CCN(CCO)CC2)cc(OCCCCCCCCCCC)c1` [IAJD 124, 3-(Dodecyloxy)-5-(undecyloxy)benzyl 4-(4-(2-hydroxyethyl)piperazin-1-yl)butanoate] as the compound, how does the Luminescence [1, 6] read?
A: 145,115

Q: What about the “In vivo activity (total flux, p/s)” value ([2]; Table 19, nonsymmetric IAJDs) of the same compound?
A: 3.77 × 10^7 p/s

Q: What about the “Organs with luminescence: spleen” value [3] of the same compound?
A: spleen (strong)

Q: What does the source list for `CCCCCCCCCCCCCCOc1cc(COC(=O)CCCN2CCN(CCO)CC2)cc(OCCCCCCCCCCC)c1` [IAJD 125, 3-(Tetradecyloxy)-5-(undecyloxy)benzyl 4-(4-(2-hydroxyethyl)piperazin-1-yl)butanoate]?
A: Luminescence [1, 6]: 119,405; In vivo activity (total flux, p/s) ([2]; Table 19, nonsymmetric IAJDs): 2.15 × 10^8 p/s; In vivo activity (total flux, p/s) [2, 7]: 2.15 × 10^8 p/s; Organs with luminescence: spleen [3]: spleen (strong)

Q: Which results are given for `CCCCCCCCCCCCCCCCCOc1cc(COC(=O)CCCN2CCN(C)CC2)cc(OCCCCCCCCCCC)c1` [IAJD 126, 3-(Heptadecyloxy)-5-(undecyloxy)benzyl 4-(4-methylpiperazin-1-yl)butanoate]?
A: Luminescence [1, 6]: 675; In vivo activity (total flux, p/s) ([2]; Table 19, nonsymmetric IAJDs): 3.21 × 10^7 p/s; Organs with luminescence: spleen [3]: spleen (strong)

Q: How did the Luminescence [1, 6] turn out when `CCCCCCCCCCCCCCCCCOc1cc(COC(=O)CCCN2CCN(CCO)CC2)cc(OCCCCCCCCCCC)c1` [IAJD 127, 3-(Heptadecyloxy)-5-(undecyloxy)benzyl 4-(4-(2-hydroxyethyl)piperazin-1-yl)butanoate] was run?
A: 147,731

Q: What about the “In vivo activity (total flux, p/s)” value ([2]; Table 19, nonsymmetric IAJDs) of the same compound?
A: 1.07 × 10^8 p/s

Q: What about the “Organs with luminescence: spleen” value [3] of the same compound?
A: spleen (strong)

Q: For `CCCCCCCCCCCCCCCCCCOc1cc(COC(=O)CCCN2CCN(CCO)CC2)cc(OCCCCCCCCCCC)c1` [IAJD 128, 3-(Octadecyloxy)-5-(undecyloxy)benzyl 4-(4-(2-hydroxyethyl)piperazin-1-yl)butanoate], which Luminescence [1, 6] is on record?
A: 449,311

Q: What about the “In vivo activity (total flux, p/s)” value ([2]; Table 19, nonsymmetric IAJDs) of the same compound?
A: 5.53 × 10^7 p/s

Q: And the “In vivo activity (total flux, p/s)” value [2, 7]?
A: 5.53 × 10^7 p/s

Q: And the “Organs with luminescence: spleen” value [3]?
A: spleen (strong)

Source: patent US20240252677A1, “ONE-COMPONENT DELIVERY SYSTEM FOR NUCLEIC ACIDS” (The Trustees of the University of Pennsylvania, priority 2021, published 2024)
